Source: US10385108B2, “Peptide analogs of alpha-melanocyte stimulating hormone” (Genzyme Corporation, priority 2008, dated 2019)
Where a SMILES comes first, the peptide text is derived from it. [ ]: non-standard residue; d: D form. The star is where a group is joined. X1 = CCCCCCCCCCCCCCCCCC(=O)NCCCCCCN*; dBta = N[C@H](Cc1csc2ccccc12)C(=O)O; d3Pal = N[C@H](Cc1cccnc1)C(=O)O; d2Thi = N[C@H](Cc1cccs1)C(=O)O; NH(CH2)3Ph = c1ccc(CCCN*)cc1; dNle = CCCC[C@@H](N)C(=O)O

molecular target: MC1R (Homo sapiens, UniProt Q01726); test: Competitive binding with 125I-NDP-MSH, HEK293 membrane preparations, MC1R; settings: not given;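 further: Read-out: receptor-bound radioligand retained by filtration and counted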
Sequence (Q01726 whole entry): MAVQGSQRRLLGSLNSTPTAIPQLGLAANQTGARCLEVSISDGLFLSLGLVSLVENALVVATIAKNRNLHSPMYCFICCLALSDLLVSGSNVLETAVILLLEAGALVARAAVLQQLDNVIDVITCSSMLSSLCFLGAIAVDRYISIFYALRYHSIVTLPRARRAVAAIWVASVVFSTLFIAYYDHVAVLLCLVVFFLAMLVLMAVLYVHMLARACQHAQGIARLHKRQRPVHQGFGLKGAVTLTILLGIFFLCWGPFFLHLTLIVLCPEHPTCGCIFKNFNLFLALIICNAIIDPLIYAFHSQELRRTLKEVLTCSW

SMILES | affinity for MC1R compared with parent peptide (in words)
CC(C)[C@@H](N)C(=O)N1CCC[C@@H]1C(=O)N[C@H](CCCCN)C(=O)NCC(=O)N[C@H](Cc1c[nH]c2ccccc12)C(=O)N[C@H](CCCNC(=N)N)C(=O)N[C@H](Cc1ccccc1)C(=O)N[C@H](Cc1c[nH]cn1)C(=O)NCCCc1ccccc1 [compound 847, vpkGwrfh] (H-[dV][dP][dK]G[dW][dR][dF][dH]-{NH(CH2)3Ph}) | no increase in the affinity

same assay, conditions: Ki MC1R, competition with 125I-NDP-MSH

SMILES | Ki [nM]
CC(C)[C@@H](N)C(=O)N1CCC[C@@H]1C(=O)N[C@H](CCCCN)C(=O)NCC(=O)N[C@H](Cc1c[nH]c2ccccc12)C(=O)N[C@H](CCCNC(=N)N)C(=O)N[C@H](Cc1ccccc1)C(=O)N[C@H](Cc1c[nH]cn1)C(=O)O [847int, vpkGwrfh] (H-[dV][dP][dK]G[dW][dR][dF][dH]-OH) | 150
CSCC[C@@H](NC(=O)[C@@H](CCC(=O)O)NC(=O)[C@@H](Cc1c[nH]cn1)NC(=O)[C@@H](Cc1ccccc1)NC(=O)[C@@H](CCCNC(=N)N)NC(=O)[C@@H](Cc1ccccc1)NC(=O)CNC(=O)[C@@H](CCCCN)NC(=O)[C@H]1CCCN1C(=O)[C@H](NC(C)=O)C(C)C)C(=O)N[C@H](CO)C(=O)N[C@H](Cc1ccc(O)cc1)C(=O)N[C@H](CO)C(N)=O [862-b, vpkGfrfhemsys] (Ac-[dV][dP][dK]G[dF][dR][dF][dH][dE][dM][dS][dY][dS]-NH2) | 128
CSCC[C@@H](NC(=O)[C@@H](C)NC(=O)[C@@H](Cc1c[nH]cn1)NC(=O)[C@@H](Cc1ccccc1)NC(=O)[C@@H](CCCNC(=N)N)NC(=O)[C@@H](Cc1c[nH]c2ccccc12)NC(=O)CNC(=O)[C@@H](CCCCN)NC(=O)[C@H]1CCCN1C(=O)[C@H](NC(C)=O)C(C)C)C(=O)N[C@H](CO)C(=O)N[C@H](Cc1ccc(O)cc1)C(=O)N[C@H](CO)C(N)=O [compound 808, vpkGwrfhamsys] (Ac-[dV][dP][dK]G[dW][dR][dF][dH][dA][dM][dS][dY][dS]-NH2) | 2.5
CCCCCCCCCCCCCCCCCC(=O)N[C@@H](Cc1c[nH]cn1)C(=O)N[C@H](Cc1ccccc1)C(=O)N[C@@H](CCCNC(=N)N)C(=O)N[C@@H](Cc1c[nH]c2ccccc12)C(N)=O [compound 820, (Stearyl) HfRW] | 1.3
CC(C)[C@@H](N)C(=O)N1CCC[C@@H]1C(=O)N[C@H](CCCCN)C(=O)NCC(=O)N[C@H](Cc1c[nH]c2ccccc12)C(=O)N[C@H](CCCNC(=N)N)C(=O)N[C@H](Cc1ccccc1)C(=O)N[C@H](Cc1c[nH]cn1)C(=O)NCCCc1ccccc1 [compound 847, vpkGwrfh] (H-[dV][dP][dK]G[dW][dR][dF][dH]-{NH(CH2)3Ph}) | 104 ± 72
CSCC[C@@H](NC(=O)[C@@H](CCC(=O)O)NC(=O)[C@@H](Cc1c[nH]cn1)NC(=O)[C@@H](Cc1ccccc1)NC(=O)[C@@H](CCCNC(=N)N)NC(=O)[C@@H](Cc1c[nH]c2ccccc12)NC(=O)CNC(=O)[C@@H](CCCN)NC(=O)[C@H]1CCCN1C(=O)[C@H](NC(C)=O)C(C)C)C(=O)N[C@H](CO)C(=O)N[C@H](Cc1ccc(O)cc1)C(=O)N[C@H](CO)C(N)=O [compound 857, vp(D-Ornithine)Gwrfhemsys] | 3
CCCC[C@@H](NC(=O)[C@H]1CCCN1C(=O)[C@H](NC(C)=O)C(C)C)C(=O)NCC(=O)N[C@H](Cc1c[nH]c2ccccc12)C(=O)N[C@H](CCCNC(=N)N)C(=O)N[C@H](Cc1ccccc1)C(=O)N[C@H](Cc1c[nH]cn1)C(=O)N[C@H](CCC(=O)O)C(=O)N[C@H](CCSC)C(=O)N[C@H](CO)C(=O)N[C@H](Cc1ccc(O)cc1)C(=O)N[C@H](CO)C(N)=O [compound 858, vp(D-Norleucine)Gwrfhemsys] (Ac-[dV][dP][dNle]G[dW][dR][dF][dH][dE][dM][dS][dY][dS]-NH2) | 18
CSCC[C@@H](NC(=O)[C@@H](CCC(=O)O)NC(=O)[C@@H](Cc1c[nH]cn1)NC(=O)[C@@H](Cc1ccccc1)NC(=O)[C@@H](CCCNC(=N)N)NC(=O)[C@@H](Cc1csc2ccccc12)NC(=O)CNC(=O)[C@@H](CCCCN)NC(=O)[C@H]1CCCN1C(=O)[C@H](NC(C)=O)C(C)C)C(=O)N[C@H](CO)C(=O)N[C@H](Cc1ccc(O)cc1)C(=O)N[C@H](CO)C(N)=O [compound 859, vpkG(3-benzothienyl-D-Alanine)rfhemsys] (Ac-[dV][dP][dK]G[dBta][dR][dF][dH][dE][dM][dS][dY][dS]-NH2) | 206
CSCC[C@@H](NC(=O)[C@@H](CCC(=O)O)NC(=O)[C@@H](Cc1c[nH]cn1)NC(=O)[C@@H](Cc1ccccc1)NC(=O)[C@@H](CCCNC(=N)N)NC(=O)[C@@H](Cc1c[nH]c2ccc(O)cc12)NC(=O)CNC(=O)[C@@H](CCCCN)NC(=O)[C@H]1CCCN1C(=O)[C@H](NC(C)=O)C(C)C)C(=O)N[C@H](CO)C(=O)N[C@H](Cc1ccc(O)cc1)C(=O)N[C@H](CO)C(N)=O [compound 860, vpkG(5-hydroxy-D-Trp)rfhemsys] | 96
COc1ccc2[nH]cc(C[C@@H](NC(=O)CNC(=O)[C@@H](CCCCN)NC(=O)[C@H]3CCCN3C(=O)[C@H](NC(C)=O)C(C)C)C(=O)N[C@H](CCCNC(=N)N)C(=O)N[C@H](Cc3ccccc3)C(=O)N[C@H](Cc3c[nH]cn3)C(=O)N[C@H](CCC(=O)O)C(=O)N[C@H](CCSC)C(=O)N[C@H](CO)C(=O)N[C@H](Cc3ccc(O)cc3)C(=O)N[C@H](CO)C(N)=O)c2c1 [compound 861, vpkG(5-methoxy-D-Trp)rfhemsys] | 75
CSCC[C@@H](NC(=O)[C@@H](CCC(=O)O)NC(=O)[C@@H](Cc1c[nH]cn1)NC(=O)[C@@H](Cc1ccccc1)NC(=O)[C@@H](Cc1c[nH]cn1)NC(=O)[C@@H](Cc1c[nH]c2ccccc12)NC(=O)CNC(=O)[C@@H](CCCCN)NC(=O)[C@H]1CCCN1C(=O)[C@H](NC(C)=O)C(C)C)C(=O)N[C@H](CO)C(=O)N[C@H](Cc1ccc(O)cc1)C(=O)N[C@H](CO)C(N)=O [compound 865, vpkGwhfhemsys] (Ac-[dV][dP][dK]G[dW][dH][dF][dH][dE][dM][dS][dY][dS]-NH2) | 2300
CSCC[C@@H](NC(=O)[C@@H](CCC(=O)O)NC(=O)[C@@H](Cc1c[nH]cn1)NC(=O)[C@@H](Cc1cccnc1)NC(=O)[C@@H](CCCNC(=N)N)NC(=O)[C@@H](Cc1c[nH]c2ccccc12)NC(=O)CNC(=O)[C@@H](CCCCN)NC(=O)[C@H]1CCCN1C(=O)[C@H](NC(C)=O)C(C)C)C(=O)N[C@H](CO)C(=O)N[C@H](Cc1ccc(O)cc1)C(=O)N[C@H](CO)C(N)=O [compound 867, vpkGwr(3-pyridyl-D-Alanine)hemsys] (Ac-[dV][dP][dK]G[dW][dR][d3Pal][dH][dE][dM][dS][dY][dS]-NH2) | 480
CSCC[C@@H](NC(=O)[C@@H](CCC(=O)O)NC(=O)[C@@H](Cc1c[nH]cn1)NC(=O)[C@@H](Cc1cccs1)NC(=O)[C@@H](CCCNC(=N)N)NC(=O)[C@@H](Cc1c[nH]c2ccccc12)NC(=O)CNC(=O)[C@@H](CCCCN)NC(=O)[C@H]1CCCN1C(=O)[C@H](NC(C)=O)C(C)C)C(=O)N[C@H](CO)C(=O)N[C@H](Cc1ccc(O)cc1)C(=O)N[C@H](CO)C(N)=O [compound 868, vpkGwr(2-thienyl-D-Alanine)hemsys] (Ac-[dV][dP][dK]G[dW][dR][d2Thi][dH][dE][dM][dS][dY][dS]-NH2) | 5.4
CSCC[C@@H](NC(=O)[C@@H](CCC(=O)O)NC(=O)[C@@H](Cc1c[nH]cn1)NC(=O)[C@@H](Cc1ccc([N+](=O)[O-])cc1)NC(=O)[C@@H](CCCNC(=N)N)NC(=O)[C@@H](Cc1c[nH]c2ccccc12)NC(=O)CNC(=O)[C@@H](CCCCN)NC(=O)[C@H]1CCCN1C(=O)[C@H](NC(C)=O)C(C)C)C(=O)N[C@H](CO)C(=O)N[C@H](Cc1ccc(O)cc1)C(=O)N[C@H](CO)C(N)=O [compound 871, vpkGwr(4-Nitro-D-Phe)hemsys] | 324
CSCC[C@@H](NC(=O)[C@@H](CCC(=O)O)NC(=O)[C@@H](Cc1c[nH]c2ccccc12)NC(=O)[C@@H](Cc1ccccc1)NC(=O)[C@@H](CCCNC(=N)N)NC(=O)[C@@H](Cc1c[nH]c2ccccc12)NC(=O)CNC(=O)[C@@H](CCCCN)NC(=O)[C@H]1CCCN1C(=O)[C@H](NC(C)=O)C(C)C)C(=O)N[C@H](CO)C(=O)N[C@H](Cc1ccc(O)cc1)C(=O)N[C@H](CO)C(N)=O [compound 873, vpkGwrfwemsys] (Ac-[dV][dP][dK]G[dW][dR][dF][dW][dE][dM][dS][dY][dS]-NH2) | 1900
CSCC[C@@H](NC(=O)[C@@H](CC(=O)O)NC(=O)[C@@H](Cc1c[nH]cn1)NC(=O)[C@@H](Cc1ccccc1)NC(=O)[C@@H](CCCNC(=N)N)NC(=O)[C@@H](Cc1c[nH]c2ccccc12)NC(=O)CNC(=O)[C@@H](CCCCN)NC(=O)[C@H]1CCCN1C(=O)[C@H](NC(C)=O)C(C)C)C(=O)N[C@H](CO)C(=O)N[C@H](Cc1ccc(O)cc1)C(=O)N[C@H](CO)C(N)=O [compound 875, vpkGwrfhdmsys] (Ac-[dV][dP][dK]G[dW][dR][dF][dH][dD][dM][dS][dY][dS]-NH2) | 400
CSCC[C@@](C)(NC(=O)[C@@H](CCC(=O)O)NC(=O)[C@@H](Cc1c[nH]cn1)NC(=O)[C@@H](Cc1ccccc1)NC(=O)[C@@H](CCCNC(=N)N)NC(=O)[C@@H](Cc1c[nH]c2ccccc12)NC(=O)CNC(=O)[C@@H](CCCCN)NC(=O)[C@H]1CCCN1C(=O)[C@H](NC(C)=O)C(C)C)C(=O)N[C@H](CO)C(=O)N[C@H](Cc1ccc(O)cc1)C(=O)N[C@H](CO)C(N)=O [compound 877, vpkGwrfhe(α-methyl-D-Met)sys] | 282
CC(=O)N[C@@H](C(=O)N1CCC[C@@H]1C(=O)N[C@H](CCCCN)C(=O)NCC(=O)N[C@H](Cc1c[nH]c2ccccc12)C(=O)N[C@H](CCCNC(=N)N)C(=O)N[C@H](Cc1ccccc1)C(=O)N[C@H](Cc1c[nH]cn1)C(=O)N[C@H](CCC(=O)O)C(=O)N[C@H](CCCCN)C(=O)N[C@H](CO)C(=O)N[C@H](Cc1ccc(O)cc1)C(=O)N[C@H](CO)C(N)=O)C(C)C [compound 879, vpkGwrfheksys] (Ac-[dV][dP][dK]G[dW][dR][dF][dH][dE][dK][dS][dY][dS]-NH2) | 832

same assay, conditions: relative to the unmodified tetrapeptide

SMILES | improvement of binding to MC1R by stearyl addition to the core tetrapeptide [fold]
CCCCCCCCCCCCCCCCCC(=O)N[C@@H](Cc1c[nH]cn1)C(=O)N[C@H](Cc1ccccc1)C(=O)N[C@@H](CCCNC(=N)N)C(=O)N[C@@H](Cc1c[nH]c2ccccc12)C(N)=O [compound 820, (Stearyl) HfRW] | 80
CCCCCCCCCCCCCCCCCC(=O)NCCCCCCNC(=O)[C@@H](Cc1c[nH]cn1)NC(=O)[C@H](Cc1ccccc1)NC(=O)[C@@H](CCCNC(=N)N)NC(=O)[C@@H](Cc1c[nH]c2ccccc12)NC(C)=O [compound 882, wrFh] (Ac-[dW][dR]F[dH]-X1) | > 250
